Structures can show the parent of a compound that is named as a salt. Where two headings read alike, the source gives them in different places.
Legend:
[1] = test system: Candida albicans (ATCC 10231); test: Stand-alone biocidal test without organic soil; format: cell-based; details: 25 ppm in BBS; for log reduction at 25 ppm: Candida albicans, ATCC10231, without organic soil, read-out: Stand-alone biocidal result (microbial log reduction) C. albicans
Procedure: (§1) A test was conducted to study the microbiocidal efficacy of a solution containing a quaternary ammonium ester of the present invention employing borate buffered saline (BBS). The antimicrobial efficacy of each of the various compositions for the chemical disinfection of contact lenses was evaluated. Microbial challenge inoculums were prepared using Pseudomonas aeruginosa (ATCC 9027), Staphylococcus aureus (ATCC 6538), Serratia marcescens (ATCC 13880), Candida albicans (ATCC 10231) and Fusarium solani (ATCC 36031). The test organisms were cultured on appropriate agar and the cultures were harvested using sterile DPBST (Dulbecco's Phosphate Buffered Saline plus 0.05 percent weight/volume polysorbate 80) or a suitable diluent and transferred to a suitable vessel. Spore suspensions were filtered through sterile glass wool to remove hyphal fragments. Serratia marcescens, as appropriate, was filtered through a 1.2 mμ filter to clarify the suspension. After harvesting, the suspension was centrifuged at no more than 5000×g for a maximum of 30 minutes at 20 to 25° C. The supernatant was poured off and resuspended in DPBST or other suitable diluent. The suspension was centrifuged a second time, and resuspended in DPBST or other suitable diluent. All challenge bacterial and fungal cell suspensions were adjusted with DPBST or other suitable diluent to 1×10^7 to 1×10^8 cfu/ml. The appropriate cell concentration may be estimated by measuring the turbidity of the suspension, for example, using a spectrophotometer at a preselected wavelength, for example 490 nm. One tube was prepared containing a minimum of 10 ml of test solution per challenge organism. Each tube of the solution to be tested was inoculated with a suspension of the test organism sufficient to provide a final count of 1×10^5 to 1×10^6 cfu/ml, the volume of the inoculum not exceeding 1 percent of the sample volume. Dispersion of the inoculum was ensured by vortexing the sample for at least 15 seconds. The inoculated product was stored at 10 to 25° C. Aliquots in the amount of 1.0 ml were taken of the inoculated product for determination of viable counts after certain time periods of disinfection. The time points for the bacteria were, for example, 1, 2, 3 and 4 hours when the proposed regimen soaking time was four hours. Yeast and mold were tested at an additional timepoint of 16 hours (4 times the regimen time). The suspension was mixed well by vortexing vigorously for at least 5 seconds. The 1.0 ml aliquots removed at the specified time intervals were subjected to a suitable series of decimal dilutions in validated neutralizing media. The suspensions were mixed vigorously and incubated for a suitable period of time to allow for neutralization of the microbial agent at room temperature. The viable count of organisms was determined in appropriate dilutions by preparation of triplicate plates of trypticase soy (TSA) agar for bacteria and Sabouraud dextrose agar (SDA) for mold and yeast. The bacterial recovery plates were incubated at 30 to 35° C. for two to four days. The yeast was incubated at 20 to 30° C. for two to four days and mold recovery plates were incubated at 20 to 25° C. for three to seven days. The average number of colony forming units was determined on countable plates. Countable plates refer to 30 to 300 cfu/plates for bacteria and yeast, and 8 to 80 cfu/plate for mold except when colonies are observed only for the 10^0 or 10^−1 dilution plates. The microbial reduction was then calculated at the specified time points. […] Following inoculation in a validated neutralizing broth and incubation for an appropriate period of time, the inoculum control must be between 1.0×10^5 to 1.0×10^6 cfu/ml. […]

[2] = test system: Fusarium solani (ATCC 36031); test: Stand-alone biocidal test without organic soil; format: cell-based; details: 25 ppm in BBS; for log reduction at 25 ppm: Fusarium solani, ATCC36031, without organic soil, read-out: Stand-alone biocidal result (microbial log reduction) F. solani
Procedure: as §1

[3] = test system: Pseudomonas aeruginosa (ATCC 9027); test: Stand-alone biocidal test without organic soil; format: cell-based; details: 25 ppm in BBS; for Stand-alone biocidal result (microbial log reduction) P. aeruginosa: without organic soil
Procedure: as §1

[4] = test system: Serratia marcescens (ATCC 13880); test: Stand-alone biocidal test without organic soil; format: cell-based; details: 25 ppm in BBS; for Stand-alone biocidal result (microbial log reduction) S. marcescens: without organic soil
Procedure: as §1

[5] = test system: Staphylococcus aureus (ATCC 6538); test: Stand-alone biocidal test without organic soil; format: cell-based; details: 25 ppm in BBS; for Stand-alone biocidal result (microbial log reduction) S. aureus: without organic soil
Procedure: as §1

| Compound | melting point [°C] | log reduction at 25 ppm ([1]; 1 hr.) | log reduction at 25 ppm ([1]; 4 hr.) | log reduction at 25 ppm ([2]; 1 hr.) | log reduction at 25 ppm ([2]; 4 hr.) | Stand-alone biocidal result (microbial log reduction) P. aeruginosa ([3]; 1 hr.) | Stand-alone biocidal result (microbial log reduction) P. aeruginosa ([3]; 4 hr.) | Stand-alone biocidal result (microbial log reduction) S. marcescens ([4]; 1 hr.) | Stand-alone biocidal result (microbial log reduction) S. marcescens ([4]; 4 hr.) | Stand-alone biocidal result (microbial log reduction) S. aureus ([5]; 1 hr.) | Stand-alone biocidal result (microbial log reduction) S. aureus ([5]; 4 hr.) | other results |
| --- | --- | --- | --- | --- | --- | --- | --- | --- | --- | --- | --- | --- |
| CCCCCCCCCCCCCC(=O)OCCC[N+](C)(C)Cc1ccccc1 (as salt: chloride) [Compound 1, N-myristoyloxypropyl-N-benzyl-N,N-dimethylammonium chloride] | 93 to 95 | – | – | – | – | – | – | – | – | – | – | – |
| CCCCCCCC(=O)OCCC[N+](C)(C)C (as salt: iodide) [Compound 2, N-capryloyloxypropyl-N,N,N-trimethylammonium iodide] | 107 to 109 | – | – | – | – | – | – | – | – | – | – | – |
| CCCCCCCCCCCC(=O)OCCC[N+](C)(C)C (as salt: iodide) [Compound 4, N-lauroyloxypropyl-N,N,N-trimethylammonium iodide] | 121 to 124 | – | – | – | – | – | – | – | – | – | – | – |
| CCCCCCCCCCCCCC(=O)OCCC[N+](C)(C)C (as salt: iodide) [Compound 5, N-myristoyloxypropyl-N,N,N-trimethylammonium iodide] | 118 to 120 | – | – | – | – | – | – | – | – | – | – | – |
| CCCCCCCCCCCCCCCC(=O)OCCC[N+](C)(C)C (as salt: iodide) [Compound 6, N-palmitoyloxypropyl-N,N,N-trimethylammonium iodide] | 116 to 118 | – | – | – | – | – | – | – | – | – | – | – |
| CCCCCCCCCCCCCCCCCC(=O)OCCC[N+](C)(C)C (as salt: iodide) [Compound 7, N-stearoyloxypropyl-N,N,N-trimethylammonium iodide] | 116 to 118 | – | – | – | – | – | – | – | – | – | – | – |
| CCCCCCCCCCCCCC(=O)OCCC[N+](C)(C)CC (as salt: iodide) [Compound 8, N-myristoyloxypropyl-N,N-dimethyl-N-ethylammonium iodide] | 60 to 62 | – | – | – | – | – | – | – | – | – | – | – |
| CCCCCCCC(=O)OCCC[N+](C)(C)C [Compound 2, N-capryloyloxypropyl-N,N,N-trimethylammonium iodide] | – | 0 | 0.2 | 0.1 | 0.6 | TNTC | TNTC | TNTC | TNTC | TNTC | TNTC | – |
| CCCCCCCCCCCC(=O)OCCC[N+](C)(C)C [Compound 4, N-lauroyloxypropyl-N,N,N-trimethylammonium iodide] | – | 0 | 0.1 | 0.1 | 0.6 | 2.0 | 3.0 | TNTC | TNTC | TNTC | TNTC | – |
| CCCCCCCCCCCCCC(=O)OCCC[N+](C)(C)C [Compound 5, N-myristoyloxypropyl-N,N,N-trimethylammonium iodide] | – | 1.9 | 3.4 | 3.2 | 3.3 | >4.6 | >4.6 | 3.4 | >4.6 | >4.7 | >4.7 | – |
| CCCCCCCCCCCCCCCCCC(=O)OCCC[N+](C)(C)C [Compound 7, N-stearoyloxypropyl-N,N,N-trimethylammonium iodide] | – | 0.7 | 2.5 | 2.9 | 3.5 | 2.0 | 3.3 | TNTC | TNTC | 3.5 | >4.8 | – |
| CCCCCCCCCCCCCC(=O)OCCC[N+](C)(C)CCCC [Compound 10, N-myristoyloxypropyl-N-butyl-N,N-dimethylammonium iodide] | – | 4.5 | > 4.8 | > 4.5 | > 4.5 | >4.7 | 4.7 | 3.8 | >4.8 | >4.8 | >4.8 | – |
| CCCCCCCCCCCCCC(=O)OCCC[N+](C)(C)CCCCCCCCCC [Compound 13, N-myristoyloxypropyl-N-decyl-N,N-dimethylammonium iodide] | – | 0.5 | 1.2 | 1.5 | 3.1 | 3.5 | 4.7 | TNTC | 2.9 | 3.8 | 4.8 | – |
| CCCCCCCCCCCCCC(=O)OCCOCC[N+](C)(C)C [Compound 15, N-myristoyloxyethoxyethyl-N,N,N-trimethylammonium iodide] | – | 3.6 | 4.6 | 3.8 | 4.1 | >4.7 | >4.7 | 3.8 | >4.8 | >4.8 | >4.8 | – |
| CCCCCCCCCCCCCC(=O)NCCC[N+](C)(C)C.[I-] [N-myristamidopropyl-N,N,N-trimethylammonium iodide, reference compound] | – | – | – | – | – | – | – | – | – | – | – | Effectiveness against C. albicans (stand-alone biocidal data) [1]: failed; Effectiveness against F. solani (stand-alone biocidal data) [2]: failed; Effectiveness against P. aeruginosa (stand-alone biocidal data) [3]: proved effective; Effectiveness against S. marcescens (stand-alone biocidal data) [4]: failed; Effectiveness against S. aureus (stand-alone biocidal data) [5]: proved effective |
| CCCCCCCCCCCCCC(=O)NCCCN(C)C [N-myristamidopropyl-N,N-dimethylamine, reference compound] | – | – | – | – | – | – | – | – | – | – | – | Effectiveness against C. albicans (stand-alone biocidal data) [1]: effective; Effectiveness against F. solani (stand-alone biocidal data) [2]: effective; Effectiveness against P. aeruginosa (stand-alone biocidal data) [3]: effective; Effectiveness against S. marcescens (stand-alone biocidal data) [4]: not effective; Effectiveness against S. aureus (stand-alone biocidal data) [5]: effective |
| CCCCCCCCCCCCCC(=O)OCCCN(C)C [N-myristoyloxypropyl-N,B-dimethylamine, reference compound] | – | – | – | – | – | – | – | – | – | – | – | Effectiveness against C. albicans (stand-alone biocidal data) [1]: failed to be effective; Effectiveness against F. solani (stand-alone biocidal data) [2]: failed to be effective; Effectiveness against P. aeruginosa (stand-alone biocidal data) [3]: failed to be effective; Effectiveness against S. marcescens (stand-alone biocidal data) [4]: failed to be effective; Effectiveness against S. aureus (stand-alone biocidal data) [5]: failed to be effective |
